One compound from publication PMC8827060, “Identification and characterization of L- and D-lactate-inducible systems from Escherichia coli MG1655, Cupriavidus necator H16 and Pseudomonas species” (Scientific Reports, 2022) can be followed below.

This assay has as its system T1, CnGntR.
T1 construct: gene gntR; full-length TR gene with PH16_RS19190-mRFP1 reporter on plasmid pEA007; host C. necator H16; regulator of cluster H16_RS19175-H16_RS19195, its own locus tag inferred
The assay is described as follows: mRFP1 reporter dose-response in cells, Hill fit. It is filed as cell-based, Cupriavidus necator. The following applies: inducer of transcriptional regulator; half-maximal reporter output; host C. necator H16; minimal medium with 0.4% gluconate, 30 °C, 6 h; Hill coefficient 1.19; read-out: Km. An excerpt:
mRFP1 reporter dose-response in cells, Hill fit on CnGntR

Molecules are shown by their SMILES.

As to `C[C@H](O)C(=O)O` [L-lactate], the EC50 is 670 ± 210 µM.
